Source: ChEMBL document CHEMBL4270514, “Design, synthesis and biological evaluation of novel xanthine oxidase inhibitors bearing a 2-arylbenzo[b]furan scaffold” (Eur J Med Chem, 2018)
The source made the active and inactive calls. No cut-off for these calls is given here.

How the values were obtained:
[1] = Cytotoxicity against mouse RAW264.7 cells assessed as effect on cell viability at 1 to 10 uM after 24 hrs by MTT assay relative to control; assay type: cell-based; details: read-out: Activity
[2] = Antioxidant activity assessed as DPPH radical scavenging activity after 30 mins by spectrophotometric analysis; assay type: functional
RAW264.7 [3] = test: Inhibition of LPS-induced ROS generation in mouse RAW264.7 cells at 1 to 10 uM after 24 hrs by H2DCFH staining-based fluorescence assay; assay type: functional, cell-based
[4] = biological target: T1, Xanthine dehydrogenase/oxidase (Bos taurus, UniProt P80457); test: Inhibition of bovine xanthine oxidase using xanthine as substrate preincubated for 3 mins followed by substrate addition and measured for every 15 secs for 7 mins by spectrophotometric analysis
T1 sequence (P80457 whole entry): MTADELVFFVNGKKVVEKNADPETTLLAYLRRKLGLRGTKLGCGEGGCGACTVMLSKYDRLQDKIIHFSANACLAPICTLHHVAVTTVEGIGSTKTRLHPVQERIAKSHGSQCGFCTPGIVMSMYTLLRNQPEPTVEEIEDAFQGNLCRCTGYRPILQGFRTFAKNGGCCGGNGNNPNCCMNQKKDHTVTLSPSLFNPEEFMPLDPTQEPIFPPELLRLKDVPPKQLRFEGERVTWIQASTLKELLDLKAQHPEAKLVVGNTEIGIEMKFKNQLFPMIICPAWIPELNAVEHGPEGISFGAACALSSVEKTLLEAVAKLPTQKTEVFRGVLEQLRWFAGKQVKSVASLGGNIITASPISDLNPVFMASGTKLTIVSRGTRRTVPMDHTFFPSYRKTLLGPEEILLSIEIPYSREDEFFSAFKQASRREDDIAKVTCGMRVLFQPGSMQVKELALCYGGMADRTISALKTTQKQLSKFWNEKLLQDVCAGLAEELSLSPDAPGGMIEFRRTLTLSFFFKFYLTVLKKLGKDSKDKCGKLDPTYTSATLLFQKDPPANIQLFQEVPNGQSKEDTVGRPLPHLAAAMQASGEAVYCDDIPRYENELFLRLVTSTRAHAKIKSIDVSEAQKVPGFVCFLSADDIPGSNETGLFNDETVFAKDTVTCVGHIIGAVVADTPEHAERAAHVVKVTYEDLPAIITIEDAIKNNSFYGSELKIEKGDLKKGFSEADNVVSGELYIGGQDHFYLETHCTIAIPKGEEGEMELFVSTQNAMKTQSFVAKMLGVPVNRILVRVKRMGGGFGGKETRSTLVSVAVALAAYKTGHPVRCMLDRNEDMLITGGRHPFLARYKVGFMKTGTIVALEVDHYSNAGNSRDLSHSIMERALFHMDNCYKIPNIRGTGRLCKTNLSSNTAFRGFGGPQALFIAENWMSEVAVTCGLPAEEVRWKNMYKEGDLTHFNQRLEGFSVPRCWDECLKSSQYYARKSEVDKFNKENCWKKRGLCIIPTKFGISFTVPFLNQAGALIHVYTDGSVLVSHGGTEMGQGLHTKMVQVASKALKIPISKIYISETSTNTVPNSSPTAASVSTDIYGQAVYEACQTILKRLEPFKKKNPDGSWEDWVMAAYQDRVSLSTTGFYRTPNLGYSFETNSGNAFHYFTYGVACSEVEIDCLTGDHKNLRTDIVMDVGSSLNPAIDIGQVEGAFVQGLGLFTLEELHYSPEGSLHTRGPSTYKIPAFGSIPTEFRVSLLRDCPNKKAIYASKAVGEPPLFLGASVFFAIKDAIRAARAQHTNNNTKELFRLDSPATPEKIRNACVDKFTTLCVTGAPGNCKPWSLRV

RAW264.7 [5] = test: Inhibition of LPS-induced ROS generation in mouse RAW264.7 cells at 10 uM after 24 hrs by H2DCFH staining-based fluorescence assay; assay type: functional, cell-based
Mus musculus [6] = test: Hypouricemic effect in iv dosed ICR mouse model of potassium oxonate-induced acute hyperuricemia assessed as reduction in serum uric acids level measured after 1 hr post dose; assay type: functional, organism-based
RAW264.7 [7] = test: Inhibition of LPS-induced ROS generation in mouse RAW264.7 cells after 24 hrs by H2DCFH staining-based fluorescence assay; assay type: functional, cell-based
[8] = biological target: T1, Xanthine dehydrogenase/oxidase; test: Competitive inhibition of bovine xanthine oxidase using xanthine as substrate preincubated for 3 mins followed by substrate addition by Lineweaver-Burk plot analysis
[9] = biological target: T1, Xanthine dehydrogenase/oxidase; test: Uncompetitive inhibition of bovine xanthine oxidase using xanthine as substrate preincubated for 3 mins followed by substrate addition by Lineweaver-Burk plot analysis
Mus musculus [10] = test: Hypouricemic effect in ICR mouse model of potassium oxonate-induced acute hyperuricemia assessed as reduction in serum uric acid levels at 10 mg/kg, iv measured at 1 hr post dose; assay type: functional, organism-based

Row | Structure (SMILES) | viability at 24 h, up to 10 µM [1] [%] | IC50 [2] [µM] | inhibition (RAW264.7 [3]) | IC50 [4] [µM] | viability at 24 h, 10 µM [1] [%] | inhibition (RAW264.7 [5]) | Activity (Mus musculus [6]) | inhibition (RAW264.7 [7]) | Ki [8] [µM] | Ki [9] [µM] | Activity (Mus musculus [10])
1 | C=CCNC(=O)/C=C/c1ccc(O)c2oc(-c3ccc(O)c(O)c3)cc12 | > 85 | 6.62 to 21.1 | inactive | 18.2 | – | – | – | – | – | – | –
2 | CCNC(=O)/C=C/c1ccc(O)c2oc(-c3ccc(O)c(O)c3)cc12 | – | 6.62 to 21.1 | inactive | 13.5 | > 85 | – | – | – | – | – | –
3 | O=C(/C=C/c1ccc(O)c2oc(-c3ccc(O)c(O)c3)cc12)NCc1ccccc1 | > 85 | 6.62 to 21.1 | – | 15.6 | – | Active | – | – | – | – | –
4 | O=C(/C=C/c1ccc(O)c2oc(-c3ccc(O)c(O)c3)cc12)O[C@H](Cc1ccc(O)c(O)c1)C(=O)O | > 85 | – | – | – | – | – | Dose-dependent effect | – | – | – | –
5 | O=C(O)CCc1ccc(O)c2oc(-c3ccc(O)c(O)c3)cc12 | > 85 | 6.62 to 21.1 | inactive | 9.76 | – | – | – | – | – | – | –
6 | O=C(/C=C/c1ccc(O)c2oc(-c3ccc(O)c(O)c3)cc12)Nc1ccc(Br)cc1 | > 85 | 6.62 to 21.1 | – | > 100 | – | – | – | Dose-dependent effect | – | – | –
7 | CCOC(=O)/C=C/c1ccc(O)c2oc(-c3ccc(O)c(O)c3)cc12 | > 85 | 6.62 to 21.1 | – | 15.5 | – | – | – | Dose-dependent effect | – | – | –
8 | COc1ccc(NC(=O)/C=C/c2ccc(O)c3oc(-c4ccc(O)c(O)c4)cc23)cc1 | > 85 | 6.62 to 21.1 | – | 42.2 | – | – | – | Dose-dependent effect | – | – | –
9 | Cc1ccc(NC(=O)/C=C/c2ccc(O)c3oc(-c4ccc(O)c(O)c4)cc23)cc1 | > 85 | 6.62 to 21.1 | – | 51.3 | – | – | – | Dose-dependent effect | – | – | –
10 | O=C(CCc1ccc(O)c2oc(-c3ccc(O)c(O)c3)cc12)Nc1ccc(O)cc1 | > 85 | 6.62 to 21.1 | inactive | 38.6 | – | – | – | – | – | – | –
11 | CNC(=O)/C=C/c1ccc(O)c2oc(-c3ccc(O)c(O)c3)cc12 | > 85 | 6.62 to 21.1 | – | 4.45 | – | – | Dose-dependent effect | Dose-dependent effect | 3.52 | 13.1 | –
12 | O=C(/C=C/c1ccc(O)c2oc(-c3ccc(O)c(O)c3)cc12)Nc1ccc(Cl)cc1 | > 85 | 6.62 to 21.1 | – | > 100 | – | – | – | Dose-dependent effect | – | – | –
13 | CC(C)NC(=O)/C=C/c1ccc(O)c2oc(-c3ccc(O)c(O)c3)cc12 | > 85 | 6.62 to 21.1 | – | 13.9 | – | – | – | Dose-dependent effect | – | – | –
14 | O=C(/C=C/c1ccc(O)c2oc(-c3ccc(O)c(O)c3)cc12)N1CCOCC1 | > 85 | 6.62 to 21.1 | inactive | > 100 | – | – | – | – | – | – | –
15 | CCCOC(=O)/C=C/c1ccc(O)c2oc(-c3ccc(O)c(O)c3)cc12 | > 85 | 6.62 to 21.1 | – | 19.3 | – | Active | – | – | – | – | –
16 | CNC(=O)CCc1ccc(O)c2oc(-c3ccc(O)c(O)c3)cc12 | > 85 | 6.62 to 21.1 | inactive | 11.5 | – | – | – | – | – | – | –
17 | C=CCNC(=O)CCc1ccc(O)c2oc(-c3ccc(O)c(O)c3)cc12 | > 85 | 6.62 to 21.1 | – | 46.8 | – | – | – | – | – | – | –
18 | CC(C)OC(=O)/C=C/c1ccc(O)c2oc(-c3ccc(O)c(O)c3)cc12 | > 85 | 6.62 to 21.1 | inactive | 24.2 | – | – | – | – | – | – | –
19 | O=C(/C=C/c1ccc(O)c2oc(-c3ccc(O)c(O)c3)cc12)Nc1ccccc1 | > 85 | 6.62 to 21.1 | inactive | 17.8 | – | – | – | – | – | – | –
20 | CC(C)(C)NC(=O)/C=C/c1ccc(O)c2oc(-c3ccc(O)c(O)c3)cc12 | > 85 | 6.62 to 21.1 | – | 45.2 | – | – | – | Dose-dependent effect | – | – | –
21 | Oc1ncnc2[nH]ncc12 | – | – | – | – | – | – | – | – | – | – | Active
22 | O=C(/C=C/c1ccc(O)c2oc(-c3ccc(O)c(O)c3)cc12)Nc1ccc(O)cc1 | – | 6.62 to 21.1 | inactive | 11 | > 85 | – | – | – | – | – | –
23 | O=C(O)/C=C/c1ccc(O)c2oc(-c3ccc(O)c(O)c3)cc12 [TOURNEFOLIC ACID A] | > 85 | – | – | 16.1 | – | – | – | Dose-dependent effect | – | – | –
24 | COC(=O)/C=C/c1ccc(O)c2oc(-c3ccc(O)c(O)c3)cc12 | > 85 | 6.62 to 21.1 | – | 6.55 | – | – | – | Dose-dependent effect | – | – | –
25 | O=C(CCc1ccc(O)c2oc(-c3ccc(O)c(O)c3)cc12)N1CCOCC1 | > 85 | 6.62 to 21.1 | inactive | > 100 | – | – | – | – | – | – | –
26 | O=C(/C=C/c1ccc(O)c2oc(-c3ccc(O)c(O)c3)cc12)N1CCCCC1 | > 85 | 6.62 to 21.1 | – | 21.2 | – | – | – | Dose-dependent effect | – | – | –
27 | O=C(/C=C/c1ccc(O)c2oc(-c3ccc(O)c(O)c3)cc12)Nc1ccc(F)cc1 | > 85 | 6.62 to 21.1 | – | 83.8 | – | – | – | Dose-dependent effect | – | – | –
